Earlier results as cited in patent publication US20230029485A1 (priority 2021, published 2023).

How the values were obtained:
Details in all cases: in vivo
[1] = tested on: metastatic colorectal cancer
[2] = tested on: SARS-CoV-2
[3] = tested on: SARS-CoV-2; remark: listed apart in the source

O=c1[nH]cc(F)c(=O)[nH]1 [5-fluorouracil]
objective response rate [1]: around 20%

CCN(CCO)CCCC(C)Nc1ccnc2cc(Cl)ccc12 (stereo not shown) [HCQ, hydroxychloroquine]
developed QT prolongation [2]: nine
good clinical outcome and a virological cure [2]: 91.7%

CCC(CC)COC(=O)[C@H](C)N[P@](=O)(OC[C@H]1O[C@@](C#N)(c2ccc3c(N)ncnn23)[C@H](O)[C@@H]1O)Oc1ccccc1 [RDV, Remdesivir]
adverse events, share of patients [3]: 60.3%
